Among the data in ChEMBL document CHEMBL3045632, “Synthetic inhibitors of the fungal detoxifying enzyme brassinin oxidase based on the phytoalexin camalexin scaffold” (J Agric Food Chem, 2009) are inhibition, Ratio and solubility values, retold here.

Series [1] deals with Plenodomus lingam. Nature of the series: Inhibition of Leptosphaeria maculans brassinin oxidase activity at 0.30 mM relative to control.
Series [2] concerns Plenodomus lingam. Nature of the series: Antifungal activity against Leptosphaeria maculans assessed as inhibition of mycelial growth at 0.50 mM relative to control. The format is functional.
The subject of series [3] is Plenodomus lingam. Nature of the series: Antifungal activity against Leptosphaeria maculans assessed as inhibition of mycelial growth at 0.20 mM relative to control. It counts as functional.
For series [4], the system named is Plenodomus lingam. Nature of the series: Antifungal activity against Leptosphaeria maculans assessed as inhibition of mycelial growth at 0.10 mM relative to control. The format is functional.
For series [5], the system named is Plenodomus lingam. Nature of the series: Inhibition of Leptosphaeria maculans brassinin oxidase assessed as relative protein at 0.50 mM relative to control.
In series [6] the test system is Plenodomus lingam. Nature of the series: Inhibition of Leptosphaeria maculans brassinin oxidase assessed as relative protein at 0.20 mM relative to control.
Series [7] concerns Plenodomus lingam. Nature of the series: Inhibition of Leptosphaeria maculans brassinin oxidase assessed as relative protein at 0.10 mM relative to control.
Series [8] deals with Plenodomus lingam. Nature of the series: Inhibition of Leptosphaeria maculans brassinin oxidase assessed as relative specific activity at 0.50 mM relative to control.
For series [9], the system named is Plenodomus lingam. Nature of the series: Inhibition of Leptosphaeria maculans brassinin oxidase assessed as relative specific activity at 0.20 mM relative to control.
Series [10] relates to Plenodomus lingam. Nature of the series: Inhibition of Leptosphaeria maculans brassinin oxidase assessed as relative specific activity at 0.10 mM relative to control.
In series [11] the test system is Plenodomus lingam. Nature of the series: Inhibition of Leptosphaeria maculans brassinin oxidase activity at 0.10 mM relative to control.
Series [12] in a line: Solubility of the compound at 50 mM. The note with it: 50000 µM. The format is physicochemical.

Take `Fc1ccc2[nH]cc(-c3nccs3)c2c1` [5-FLUOROCAMALEXIN]: the inhibition with Plenodomus lingam [1] is 63%; in the series with Plenodomus lingam [11] it was 47%. Also, the inhibition at 500 µM with Plenodomus lingam [2] amounted to 100%. In the series with Plenodomus lingam [3], the inhibition at 200 µM was found to be 81%. Moreover, the inhibition at 100 µM in the series on Plenodomus lingam [4] turned out to be 76%. Also, the Ratio in the series with Plenodomus lingam [5] came out at 0.19; in the series with Plenodomus lingam [6], 0.23; in the series with Plenodomus lingam [7], 0.3; in the series on Plenodomus lingam [8], 7.9; in the series with Plenodomus lingam [9] it was 4.9; with Plenodomus lingam [10], 5.
As to `c1ccc2[nH]c(-c3cscn3)nc2c1` [THIABENDAZOLE], the inhibition came out at 25% in the series with Plenodomus lingam [1] and 16% with Plenodomus lingam [11]. Also, the inhibition at 100 µM in the series with Plenodomus lingam [4] was 100%. Moreover, the Ratio with Plenodomus lingam [5] was 0.06; in the series with Plenodomus lingam [6], 0.28; with Plenodomus lingam [7], 0.35; with Plenodomus lingam [8], 4.9; in the series with Plenodomus lingam [9], 4.1; with Plenodomus lingam [10], 1.9.
In the case of `COc1ccc2[nH]cc(-c3nccs3)c2c1` [5-METHOXYCAMALEXIN], the inhibition in the series on Plenodomus lingam [1] is 72%; in the series with Plenodomus lingam [11], 51%. For the same compound, the inhibition at 500 µM in the series with Plenodomus lingam [2] was found to be 100%. The inhibition at 200 µM in the series with Plenodomus lingam [3] is 84%. For the same compound, the inhibition at 100 µM in the series on Plenodomus lingam [4] was 60%. In addition, the Ratio in the series on Plenodomus lingam [5] turned out to be 0.13; with Plenodomus lingam [6] it was 0.24; in the series with Plenodomus lingam [7], 0.28; in the series with Plenodomus lingam [8] it was 1.6; in the series with Plenodomus lingam [9], 5.8; in the series with Plenodomus lingam [10], 1.7.
Turning to `c1ccc(-c2c[nH]c3ccccc23)cc1` [3-PHENYLINDOLE], the inhibition at 100 µM in the series on Plenodomus lingam [4] was 100%. Also, the Ratio in the series with Plenodomus lingam [5] stood at 0.1; with Plenodomus lingam [6] it was 0.14; with Plenodomus lingam [7], 0.18; in the series with Plenodomus lingam [8], 5.7; with Plenodomus lingam [9] it was 39.2; with Plenodomus lingam [10] it was 30.9.
`c1ccc2c(-c3nccs3)c[nH]c2c1` [CAMALEXIN]: the inhibition in the series with Plenodomus lingam [1] is 53%; with Plenodomus lingam [11], 30%. The inhibition at 500 µM with Plenodomus lingam [2] was found to be 100%. Also, in the series with Plenodomus lingam [3], the inhibition at 200 µM is 65%. Further, in the series with Plenodomus lingam [4], the inhibition at 100 µM turned out to be 35%. In addition, the Ratio was found to be 0.1 in the series on Plenodomus lingam [5]; 0.24 in the series on Plenodomus lingam [6]; 0.28 in the series with Plenodomus lingam [7]; 2.5 in the series with Plenodomus lingam [8]; 6.9 with Plenodomus lingam [9]; 4.5 in the series on Plenodomus lingam [10].
On to `c1ccc2cc(-c3cnsc3)ccc2c1` [2-NAPHTHALENYLISOTHIAZOLE], for which the inhibition with Plenodomus lingam [1] was 42%; in the series with Plenodomus lingam [11], 29%. Further, in series [12], the solubility result is listed as “Insoluble”. The inhibition at 200 µM in the series on Plenodomus lingam [3] was determined as 53%. Moreover, the inhibition at 100 µM with Plenodomus lingam [4] stood at 41%. The Ratio in the series with Plenodomus lingam [5] was found to be 0.16; in the series on Plenodomus lingam [6] it was 0.17; in the series on Plenodomus lingam [7], 0.26; with Plenodomus lingam [8] it was 16.3; with Plenodomus lingam [9] it was 8.5; with Plenodomus lingam [10], 2.6.
Take `c1ccc2c(-c3cnsc3)cccc2c1`: the inhibition in the series on Plenodomus lingam [1] is 21%; in the series with Plenodomus lingam [11], 16%.
On to `Fc1ccc2c(-c3nccs3)c[nH]c2c1` [6-FLUOROCAMALEXIN], for which the inhibition in the series on Plenodomus lingam [1] worked out at 46%; with Plenodomus lingam [11] it was 29%. Also, in the series on Plenodomus lingam [2], the inhibition at 500 µM is 83%. Also, the inhibition at 200 µM in the series on Plenodomus lingam [3] turned out to be 47%. Besides, the inhibition at 100 µM with Plenodomus lingam [4] turned out to be 29%. In addition, the Ratio with Plenodomus lingam [5] was determined as 0.24; in the series with Plenodomus lingam [6], 0.28; with Plenodomus lingam [7], 0.36; in the series with Plenodomus lingam [8], 1.8; in the series with Plenodomus lingam [9], 4; in the series with Plenodomus lingam [10] it was 3.9.
For `Fc1ccc2c(-c3ccccc3)c[nH]c2c1`, the inhibition worked out at 17% with Plenodomus lingam [1] and 11% in the series on Plenodomus lingam [11].
`COc1ccc2c(-c3nccs3)c[nH]c2c1` [6-METHOXYCAMALEXIN]: the inhibition was 63% with Plenodomus lingam [1] and 41% in the series with Plenodomus lingam [11]. Further, in the series on Plenodomus lingam [2], the inhibition at 500 µM amounted to 100%. Moreover, the inhibition at 200 µM with Plenodomus lingam [3] was determined as 78%. Besides, in the series on Plenodomus lingam [4], the inhibition at 100 µM was determined as 17%. Also, the Ratio with Plenodomus lingam [5] amounted to 0.11; in the series on Plenodomus lingam [6] it was 0.16; in the series on Plenodomus lingam [7], 0.27; in the series with Plenodomus lingam [8], 4; in the series with Plenodomus lingam [9], 3.7; with Plenodomus lingam [10] it was 2.3.
